Experiments:
[1] = molecular target: T1, 3-hydroxy-3-methylglutaryl-coenzyme A reductase (Rattus norvegicus) (UniProt P51639); assay: compound was tested for its ability to inhibit solubilized, purified rat liver HMG-CoA reductase, relative to compactin(100)
T1 sequence (whole entry): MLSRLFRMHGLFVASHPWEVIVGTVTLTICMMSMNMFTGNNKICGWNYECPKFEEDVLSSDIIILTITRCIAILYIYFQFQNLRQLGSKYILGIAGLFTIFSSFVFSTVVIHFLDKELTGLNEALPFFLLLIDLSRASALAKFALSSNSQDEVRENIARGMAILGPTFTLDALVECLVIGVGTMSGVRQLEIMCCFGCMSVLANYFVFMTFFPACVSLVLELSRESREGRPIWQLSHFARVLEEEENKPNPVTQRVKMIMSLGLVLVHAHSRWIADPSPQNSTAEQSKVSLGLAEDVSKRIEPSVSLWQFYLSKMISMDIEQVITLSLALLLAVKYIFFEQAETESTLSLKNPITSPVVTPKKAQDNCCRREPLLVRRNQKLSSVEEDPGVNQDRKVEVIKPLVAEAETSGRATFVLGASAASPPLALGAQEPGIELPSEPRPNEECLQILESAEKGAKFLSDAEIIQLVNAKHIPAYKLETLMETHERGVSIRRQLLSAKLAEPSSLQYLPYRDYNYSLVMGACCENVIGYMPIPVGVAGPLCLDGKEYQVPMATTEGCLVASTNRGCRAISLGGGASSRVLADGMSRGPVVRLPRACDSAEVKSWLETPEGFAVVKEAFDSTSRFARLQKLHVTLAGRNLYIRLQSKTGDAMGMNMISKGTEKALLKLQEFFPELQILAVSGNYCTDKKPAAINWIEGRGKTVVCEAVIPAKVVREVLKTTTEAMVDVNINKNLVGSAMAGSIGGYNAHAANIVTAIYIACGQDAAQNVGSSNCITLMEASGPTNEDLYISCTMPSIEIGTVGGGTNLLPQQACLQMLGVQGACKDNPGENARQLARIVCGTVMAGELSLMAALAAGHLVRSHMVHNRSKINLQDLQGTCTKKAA

[2] = molecular target: T1, 3-hydroxy-3-methylglutaryl-coenzyme A reductase (Rattus norvegicus); assay: Compound was tested for its ability to inhibit solubilized, purified rat liver HMG-CoA reductase, relative to compactin(100)
[3] = molecular target: T2, 3-hydroxy-3-methylglutaryl-coenzyme A reductase (Rattus norvegicus, UniProt P51639); assay: Compound was tested in vitro for its ability to inhibit rat liver HMG-CoA reductase
T2 sequence (P51639 whole entry): T1 sequence (whole entry)

Work on `Cc1cc(C)cc(-c2cc(C)cc(C)c2/C=C/[C@@H]2C[C@@H](O)CC(=O)O2)c1` yielded a Relative potency [1] of 80.
Molecule `Cc1cc(C)c2c(c1)-c1cc(C)cc(C)c1C2=C[C@@H]1C[C@@H](O)CC(=O)O1` has a Relative potency [2] of 1.7 and an IC50 [3] of 830 nM.
`O=C1C[C@H](O)C[C@@H](/C=C/c2c(Cl)cc(Cl)cc2-c2ccc(F)cc2)O1` was tested, and the Relative potency [1] was 100.
With `Cc1cc(C)c2c(c1)-c1ccccc1/C2=C\[C@@H]1C[C@@H](O)CC(=O)O1` the Relative potency [2] was 1.9 and the IC50 [3] was 750 nM.
Molecule `O=C1C[C@H](O)CC(CC2c3cc(F)ccc3-c3cc(Cl)cc(Cl)c32)O1` (stereo partly specified) has a Relative potency [2] of 14 and an IC50 [3] of 85 nM.
`O=C1C[C@H](O)C[C@@H](/C=C/c2c(Cl)cc(Cl)cc2-c2ccccc2)O1` was tested, and the Relative potency [1] was 26.
`O=C1C[C@H](O)C[C@@H](C=C2c3ccccc3-c3ccccc32)O1` showed a Relative potency [2] of 1.5.
Molecule `O=C1C[C@H](O)C[C@@H](/C=C/c2ccccc2-c2ccccc2)O1` has a Relative potency [1] of 0.63.

Source: ChEMBL document CHEMBL1123187, “3-Hydroxy-3-methylglutaryl-coenzyme A reductase inhibitors. 5. 6-(Fluoren-9-yl)- and 6-(fluoren-9-ylidenyl)-3,5-dihydroxyhexanoic acids and their lactone derivatives” (J Med Chem, 1986)
